Experimental data published in patent US12082597B2, “Supplemented fish feed” (CAN TECHNOLOGIES, INC., priority 2013, dated 2024).
Where two headings read alike, the source gives them in different places.

Tests used:
[1] = Half-life in fish-farm sediment (Skye); assay type: physicochemical; details: Not GLP/GEP
Description: In common with most plant-derived biocides, the azadirachtin terpenoids have a short half-life in the environment. They hydrolyse in water, and their disappearance is faster the more alkaline the water. For example, at pH 7.0 and 20° C. the half-life of azadirachtin terpenoids is 19.5 days, and at pH 8.0 it is 4.4 days. As seawater is slightly alkaline, (pH 7.5-8.4) any dissolved azadirachtin terpenoids will have largely disappeared within a week. Azadirachtin is rapidly catabolized by the microflora in soil. […] Preliminary studies with some sediment from below cages in Skye (Scotland) and subsequently infused with NeemAzal® in the laboratory have indicated a half-life of 3 weeks for NeemAzal® Technical added to the sediment and incubated at 15° C. Unchanged excreted material will be infinitely diluted in the water and hydrolyzed within days into small fragments without biological activity.

DT50 in sea water = assay type: physicochemical; details: 16° C.; Not GLP/GEP
[2] = cited from earlier work
[3] = 20° C.; cited from earlier work

C/C=C(\C)C(=O)O[C@H]1C[C@@H](OC(C)=O)[C@@]2(C(=O)OC)CO[C@H]3[C@@H](O)[C@@](C)([C@]45O[C@@]4(C)[C@H]4C[C@@H]5O[C@@H]5OC=C[C@@]54O)[C@H]4[C@]1(CO[C@]4(O)C(=O)OC)[C@@H]32 (relative stereo) [Azadirachtin A, dimethyl [2aR-[2aα,3β,4β(1aR*,2S*,3aS*,6aS*,7S*,7aS*),4aβ,5α,7aS*,8β(E),10β,10aα,10bβ]]-10-(acetyloxy)octahydro-3,5-dihydroxy-4-methyl-8-[(2-methyl-1-oxo-2-butenyl)oxy]-4-(3a,6a,7,7a)-tetrahydro-6a-hydroxy-7a-methyl-2,7-methanofuro[2,3-b]oxireno[e]oxepin-1a(2H)-yl)-1H,7H-naphtho-[1,8-bc:4,4a-c′]difuran-5,10a(8H)-dicarboxylate]
DT50 in fish-farm sediment (Skye) [1]: 3 weeks
DT50 in sea water (DT50 in sea water): 8 days
DT50 in fresh water ([2]; pH 4.0): 50 days
DT50 in fresh water ([2]; pH 7.0): 19 days
DT50 in fresh water ([2]; pH 8.0): 4 days
DT50 in field soil [3]: 4 to 5 days
